Results from PMC8493801, “Exploring the Monoterpene Indole Alkaloid Scaffold for Reversing P-Glycoprotein-Mediated Multidrug Resistance in Cancer” (Pharmaceuticals, 2021).
Read-outs that look alike come from different tables or passages of the source.

Assays:
[1] = system: sensitive L5178Y mouse T-lymphoma cells (PAR); experiment: MTT antiproliferative assay, sensitive cells; assay type: cell-based; details: 72 h, mean ± SD
Method: (§1) Non-cancer mouse embryonic fibroblasts (NIH/3T3) were also used.
(§2) L5178Y mouse T-lymphoma cells (ECACC catalog no. 87111908, US FDA, Silver Spring, MD, USA) were transfected with the pHa MDR1/A retrovirus as previously reported. The ABCB1 (P-gp) overexpressing cells were selected by culturing the infected cells with 60 ng/mL of colchicine (Sigma-Aldrich Chemie GmbH, Steinheim, Germany) to preserve the MDR phenotype. L5178Y (parental, PAR) mouse T-cell lymphoma cells and the human ABCB1-transfected subline were cultured in McCoy’s 5A supplemented with 10% heat-inactivated horse serum, 100 U/L L-glutamine, and 100 mg/L penicillin-streptomycin mixture, all obtained from Sigma-Aldrich. The mouse embryonic fibroblast (NIH 3T3) cell line was purchased from ATCC (CRL-1658) and was cultured in DMEM medium supplemented with 10% fetal bovine serum. These adherent cells were detached using 0.25% trypsin and 0.02% EDTA for 5 min at 37 °C. Before the antiproliferative assay using NIH 3T3 cell line, the cells were seeded in untreated 96-well flat bottomed microtiter plates, following a 4 h incubation period in a humidified atmosphere (5% CO2, 95% air) at 37 °C.
The assay was performed according to the previously applied experimental settings.

[2] = system: mouse embryonic fibroblasts (NIH/3T3); experiment: MTT antiproliferative assay, non-cancer cells; assay type: cell-based; details: for IC50: non-cancer mouse embryonic fibroblasts, MTT, read-out: IC50 NIH/3T3 (C); for SI C/B (Selectivity Index): IC50 NIH/3T3 / IC50 MDR; for SI C/A (Selectivity Index): IC50 NIH/3T3 / IC50 PAR
Method: as §1
In addition, the antiproliferative activity of the compounds was also evaluated on non-cancerous mouse embryonic fibroblast cells (NIH/3T3), whose values were compared with those of PAR and MDR cells by evaluation of the selective index (SI) values. […] The highest selective index values (SIC/A = 9.39; SIC/B = 10.79) were found for the derivative bearing the trimethoxyphenyl substituent (17).
as §2

[3] = system: human ABCB1-transfected L5178Y mouse lymphoma cells; experiment: Checkerboard combination assay with doxorubicin; assay type: cell-based; set-up: key to CI at ED50 (combination index): CI <1 synergy, =1 additive, >1 antagonism; details: MDR cells; for CI at ED50 (combination index): best ratio
Method: The in vitro interactions between the compounds and the well-known antitumor drug and P-gp substrate, doxorubicin, were evaluated in a combination chemotherapy model on human ABCB1-transfected mouse T-lymphoma cells. The nature of drug–drug interactions was assessed by determination of the combination index (CI) using the Chou and Talalay method (Figure 1), and therefore evaluated as synergistic (CI < 1), additive (CI = 1), or antagonistic (CI > 1).
Doxorubicin (2 mg/mL, Teva Pharmaceuticals, Budapest, Hungary) was serially diluted horizontally in 100 µL as previously described, starting with 8.6 µM. The resistance modifier was subsequently diluted vertically in 50 µL; the starting concentration was determined based on the IC50. […] The checkerboard plates were kept for 72 h at 37 °C in a CO2 incubator, and at the end of the incubation period, the cell growth was determined by MTT staining method, as described earlier. Drug interactions were evaluated using Calcusyn software. Each dose–response curve (for individual agents as well as combinations) was fit to a linear model using the median effect equation in order to obtain the median effect value (corresponding to the IC50) and slope (m). The goodness-of-fit was assessed using the linear correlation coefficient, r, and only data from analysis with r > 0.90 were presented. The extent of interaction between drugs was expressed using the combination index, in which a CI value close to 1 indicates additivity, while a CI < 1 is defined as synergy and a CI > 1 as antagonism.

[4] = system: human ABCB1-gene transfected L5178Y subline (MDR); details: for RR (relative resistance ratio) = IC50MDR/IC50PAR: RR ≤ 0.5 means CS effect

Row | IC50 [1] [µM] | IC50 [4] [µM] | RR (relative resistance ratio) = IC50MDR/IC50PAR [4] | SMILES | IC50 [2] [µM] | SI C/B (Selectivity Index) [2] | SI C/A (Selectivity Index) [2] | IC50 ([2]; NIH3T3) [µM] | CI at ED50 (combination index) [3] | Interaction [3]
1 | 37.2 ± 4.99 | 23 ± 0.48 | 0.62 | CC[C@H]1CN(C)[C@H]2Cc3c([nH]c4ccccc34)C(=O)C[C@H]1C2C(=O)OC (stereo partly drawn) [Compound 1, Dregamine] |  | >4.35 | >2.69 | > 100 | 0.756 | 
2 | 53.1 ± 3.16 | 31.5 ± 1.84 | 0.59 | CCCC=NN=C1CC2C(CC)CN(C)C(Cc3c1[nH]c1ccccc31)C2C(=O)OC (stereo not drawn) [Compound 3, 3-[(butylidene)hydrazineylidene]dregamine] |  | >3.17 | >1.88 | > 100 | 0.305 | Synergism
3 | 19.1 ± 0.76 | 10.9 ± 1.34 | 0.57 | CCC1CN(C)C2Cc3c([nH]c4ccccc34)C(=NN=Cc3ccccc3Br)CC1C2C(=O)OC (stereo not drawn) [Compound 4, 3-[(2″-bromobenzylidene)hydrazineylidene]dregamine] |  | 3.22 | 1.83 | 34.9 ± 5.63 |  | 
4 | 14.8 ± 1.23 | 5.96 ± 0.26 |  | CCC1CN(C)C2Cc3c([nH]c4ccccc34)C(=NN=Cc3ccccc3O)CC1C2C(=O)OC (stereo not drawn) [Compound 5, 3-[(2″-hydroxybenzylidene)hydrazineylidene]dregamine] |  | 2.12 | 0.86 | 12.7 ± 2.29 | 0.166 | Strong Synergism
5 | 11.9 ± 1.09 | 8.72 ± 0.52 | 0.73 | CCC1CN(C)C2Cc3c([nH]c4ccccc34)C(=NN=Cc3cccc([N+](=O)[O-])c3)CC1C2C(=O)OC (stereo not drawn) [Compound 6, 3-[(3″-nitrobenzylidene)hydrazineylidene]dregamine] |  | 1.65 | 1.21 | 14.4 ± 1.36 | 0.279 | Strong Synergism
6 | 13.1 ± 0.74 | 4.62 ± 0.14 |  | CCC1CN(C)C2Cc3c([nH]c4ccccc34)C(=NN=Cc3cccc(OC)c3)CC1C2C(=O)OC (stereo not drawn) [Compound 7, 3-[(3″-methoxybenzylidene)hydrazineylidene]dregamine] |  | 2.61 | 0.92 | 12.1 ± 1.4 | 0.152 | Strong Synergism
7 | 8.84 ± 0.76 | 7.47 ± 0.17 | 0.85 | CCC1CN(C)C2Cc3c([nH]c4ccccc34)C(=NN=Cc3ccc(Br)cc3)CC1C2C(=O)OC (stereo not drawn) [Compound 8, 3-[(4″-bromobenzylidene)hydrazineylidene]dregamine] |  | 1.56 | 1.32 | 11.7 ± 2.07 | 0.451 | Synergism
8 | 14.5 ± 0.84 | 6.57 ± 0.12 |  | CCC1CN(C)C2Cc3c([nH]c4ccccc34)C(=NN=Cc3ccc(Cl)cc3)CC1C2C(=O)OC (stereo not drawn) [Compound 9, 3-[(4″-chlorobenzylidene)hydrazineylidene]dregamine] |  | 1.47 | 0.67 | 9.67 ± 0.94 | 0.194 | Strong Synergism
9 | 20.7 ± 0.8 | 11.7 ± 0.67 | 0.56 | CCC1CN(C)C2Cc3c([nH]c4ccccc34)C(=NN=Cc3ccc(C(F)(F)F)cc3)CC1C2C(=O)OC (stereo not drawn) [Compound 10, 3-[(4″-(trifluoromethyl)benzylidene)hydrazineylidene]dregamine] |  | 1.06 | 0.60 | 12.4 ± 1.58 | 0.272 | Strong Synergism
10 | 23.7 ± 0.64 | 8.4 ± 0.52 |  | CCC1CN(C)C2Cc3c([nH]c4ccccc34)C(=NN=Cc3ccc(OC(F)(F)F)cc3)CC1C2C(=O)OC (stereo not drawn) [Compound 11, 3-[(4″-(trifluoromethoxy)benzylidene)hydrazineylidene]dregamine] |  | 1.60 | 0.57 | 13.5 ± 1.14 | 0.601 | Synergism
11 | 26.4 ± 0.53 | 7.75 ± 0.55 |  | CCC1CN(C)C2Cc3c([nH]c4ccccc34)C(=NN=Cc3ccc(O)cc3)CC1C2C(=O)OC (stereo not drawn) [Compound 13, 3-[(4″-hydroxybenzylidene)hydrazineylidene]dregamine] |  | 3.94 | 1.16 | 30.5 ± 0.95 | 0.361 | Synergism
12 | 18.1 ± 2.69 | 8.64 ± 0.67 |  | CCC1CN(C)C2Cc3c([nH]c4ccccc34)C(=NN=Cc3ccc(OC)cc3)CC1C2C(=O)OC (stereo not drawn) [Compound 14, 3-[(4″-methoxybenzylidene)hydrazineylidene]dregamine] |  | 2.28 | 1.09 | 19.7 ± 0.41 | 0.402 | Synergism
13 | 12.6 ± 1.06 | 6.41 ± 0.33 | 0.51 | C=CCOc1ccc(C=NN=C2CC3C(CC)CN(C)C(Cc4c2[nH]c2ccccc42)C3C(=O)OC)cc1 (stereo not drawn) [Compound 15, 3-[(4″-(allyloxy)benzylidene)hydrazineylidene]dregamine] |  | 2.32 | 1.18 | 14.9 ± 0.72 | 0.177 | Strong Synergism
14 | 8.93 ± 0.75 | 5.86 ± 0.54 | 0.66 | CCC1CN(C)C2Cc3c([nH]c4ccccc34)C(=NN=Cc3ccc(OCc4ccccc4)cc3)CC1C2C(=O)OC (stereo not drawn) [Compound 16, 3-[(4″-(benzyloxy)benzylidene)hydrazineylidene]dregamine] |  | 3.12 | 2.04 | 18.3 ± 1.3 | 0.34 | Synergism
15 | 12.9 ± 0.35 | 12.9 ± 0.35 | 1.00 | CCC1CN(C)C2Cc3c([nH]c4ccccc34)C(=NN=Cc3c(O)ccc4ccccc34)CC1C2C(=O)OC (stereo not drawn) [Compound 19, 3-[((2″-hydroxy-1″naphthalenyl)methylene)hydrazineylidene]dregamine] |  | 1.35 | 1.35 | 17.5 ± 1.03 | 0.222 | Strong Synergism
16 | 13.62 ± 0.03 | 12.9 ± 1.57 | 0.95 | CCC1CN(C)C2Cc3c([nH]c4ccccc34)C(=NN=Cc3c[nH]c4cc(Br)ccc34)CC1C2C(=O)OC (stereo not drawn) [Compound 21, 3-[((6-bromo-1H-indol-3-yl)methylene)hydrazineylidene]dregamine] |  | 1.14 | 1.08 | 14.8 ± 2.3 | 0.445 | Synergism
17 | 5.43 ± 0.38 | 4.28 ± 0.25 | 0.79 | CCCCCNC(=O)NN=C1CC2C(CC)CN(C)C(Cc3c1[nH]c1ccccc31)C2C(=O)OC (stereo not drawn) [Compound 22] |  | 6.24 | 4.92 | 26.7 ± 0.63 | 0.219 | Strong Synergism

Row | SMILES | IC50 [1] [µM] | IC50 [4] [µM] | RR (relative resistance ratio) = IC50MDR/IC50PAR [4] | IC50 [2] [µM] | SI C/B (Selectivity Index) [2] | SI C/A (Selectivity Index) [2] | IC50 ([2]; NIH3T3) [µM] | CI at ED50 (combination index) [3] | Interaction [3]
18 | N.N.[Cl][Pt][Cl] [Cisplatin, reference compound] | 8.16 ± 1.7 |  |  | 1.06 ± 0.02 |  |  |  |  | 
